From article PMC10786919, “Design-rules for stapled peptides with in vivo activity and their application to Mdm2/X antagonists” (Nature Communications, 2024)
In brackets after ≈: the same amount, converted by molar mass. Where two headings read alike, the source gives them in different places. Positions of bridges follow the written chain, without caps; N, C: chain ends. Non-standard residues stand in square brackets, D forms with d. Residues, ends and D or L forms follow the SMILES beside them. Lys(N3) = [N-]=[N+]=NCCCC[C@H](N)C(=O)O; R8 = C=CCCCCCC[C@@](C)(N)C(=O)O; Cba = N[C@@H](CC1CCC1)C(=O)O; S5 = C=CCCC[C@](C)(N)C(=O)O; βAla = NCCC(=O)O

Legend:
[1] = Lactate dehydrogenase (LDH) release assay; type: cell-based
Outline: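 LDH release, fluorometric membrane-integrity read-out; HCT116 with stable p53-responsive β-lactamase reporter; 8000 cells/well; 0.5% DMSO final; geometric mean, n≥3 biological replicates.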

[2] = Solubility assay (kinetic solubility, PBS pH 7); type: physicochemical; conditions: for solubility kinetic: pH 7, aqueous buffer, kinetic from dmso stock, read-out: Solubility
Outline: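 Values derive from peak-area ratios of sample versus a 100 µM standard, scaled by that standard's concentration.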

Ca Ski cell line = conditions: 72 h
Outline: (§1)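 Compound dilution series (10 points, 3-fold, 10 mM top stock in DMSO) tested on overnight-plated Ca Ski cells in RPMI1640/10% FBS and on blasticidin-selected p53RE-bla HCT-116 cells in McCoy's 5A; read-out was CellTiter-Glo 2.0 luminescence after room-temperature equilibration.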

[3] = test system: CellSensor p53RE-bla HCT-116 Cell Line; conditions: 72 h
Outline: as §1

in vitro = conditions: Nanoclick permeability assay EC50
Outline: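 Azido-peptide permeability was read as loss of NanoBRET signal (donor 450 nm, acceptor 610 nm) after adding NanoBret618-azide at 10 μM final.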

physchem [4] = test: physchem
[5] = Experimental LogD (partition coefficient); conditions: for logD: not stated, Partition Coeff LogD
physchem [6] = test: physchem; remark: listed apart in the source

CC(=O)N[C@@H](CCCCN=[N+]=[N-])C(=O)NCCC(=O)N[C@@H](CC(C)C)C(=O)N[C@H](C(=O)N[C@@H](Cc1ccccc1)C(=O)N[C@]1(C)CCCCCCC=CCCC[C@@](C)(C(=O)N[C@@H](CCC(=O)O)C(=O)N[C@@H](C)C(=O)N[C@@H](C)C(N)=O)NC(=O)[C@H](CC2CCC2)NC(=O)[C@H](CCC(N)=O)NC(=O)[C@H](C)NC(=O)[C@H](Cc2c[nH]c3ccccc23)NC(=O)[C@H](Cc2ccc(O)cc2)NC(=O)[C@H](CCC(=O)O)NC1=O)[C@@H](C)O [MP-182]
EC50 ([1]; LDH: Cytotoxicity assay EC50): > 50 µM | solubility kinetic ([2]; pH 7, PBS): 163 µM (≈ 328 µg/mL) | EC50 (Ca Ski cell line): > 49.8 µM | EC50 [3]: 1.31 µM | cell entry EC50 (in vitro): 0.223 µM | EPSA (physchem [4]): 251 A^2 | logD [5]: 2.5

CC(=O)N[C@@H](CCCCN=[N+]=[N-])C(=O)N[C@@H](CCCCN)C(=O)N[C@@H](CCCCN)C(=O)NCCC(=O)N[C@@H](C)C(=O)N[C@@H](C)C(=O)N[C@@H](Cc1ccccc1)C(=O)N[C@]1(C)CCCCCCC=CCCC[C@@](C)(C(=O)N[C@@H](C)C(=O)N[C@@H](C)C(=O)N[C@@H](C)C(N)=O)NC(=O)[C@H](CC2CCC2)NC(=O)[C@H](C)NC(=O)[C@H](C)NC(=O)[C@H](Cc2c[nH]c3ccccc23)NC(=O)[C@H](Cc2ccc(O)cc2)NC(=O)[C@H](C)NC1=O [MP-8967] (Ac-[Lys(N3)]KK[βAla]AAF[R8]AYWAA[Cba][S5]AAA-NH2; staple 8-15)
EC50 ([1]; LDH Cytotoxicity assay EC50): 16.8 µM | EC50 ([1]; LDH: Cytotoxicity assay EC50): 16.8 µM | Solubility [2]: P.B. | Solubility ([2]; pH 7, PBS): Poorly Behaved | EC50 (Ca Ski cell line): 13.5 µM | EC50 [3]: 12.1 µM | cell entry EC50 (in vitro): 0.575 µM | EPSA (physchem [4]): 223 A^2 | logD [5]: 2.75

CC(=O)N[C@@H](CCCCN=[N+]=[N-])C(=O)NCCC(=O)N[C@@H](Cc1c[nH]cn1)C(=O)N[C@H](C(=O)N[C@@H](Cc1ccccc1)C(=O)N[C@]1(C)CCCCCCC=CCCC[C@@](C)(C(=O)N[C@@H](CO)C(=O)N[C@@H](C)C(=O)N[C@@H](C)C(N)=O)NC(=O)[C@H](CC2CCC2)NC(=O)[C@H](CCC(N)=O)NC(=O)[C@H](C)NC(=O)[C@H](Cc2c[nH]c3ccccc23)NC(=O)[C@H](Cc2ccc(O)cc2)NC(=O)[C@H](CCC(=O)O)NC1=O)[C@@H](C)O [MP-173, AZIDE-ATSP-7041 (L1H)] (Ac-[Lys(N3)][βAla]HTF[R8]EYWAQ[Cba][S5]SAA-NH2; staple 6-13)
EC50 ([1]; LDH: Cytotoxicity assay EC50): > 50 µM | solubility kinetic ([2]; pH 7, PBS): 5 µM (≈ 9.97 µg/mL) | EC50 (Ca Ski cell line): 35.3 µM | EC50 [3]: 5.14 µM | cell entry EC50 (in vitro): 0.0406 µM | EPSA (physchem [4]): 232 A^2 | logD [5]: 2.73

CC(=O)N[C@@H](CCCCN=[N+]=[N-])C(=O)NCCC(=O)N[C@@H](CC(C)C)C(=O)N[C@H](C(=O)N[C@@H](Cc1ccccc1)C(=O)N[C@]1(C)CCCCCCC=CCCC[C@@](C)(C(=O)N[C@@H](CO)C(=O)N[C@@H](C)C(=O)N[C@@H](C)C(N)=O)NC(=O)[C@H](CC2CCC2)NC(=O)[C@H](CCC(N)=O)NC(=O)[C@H](CCCNC(=N)N)NC(=O)[C@H](Cc2c[nH]c3ccccc23)NC(=O)[C@H](Cc2ccc(O)cc2)NC(=O)[C@H](CCC(=O)O)NC1=O)[C@@H](C)O [MP-555] (Ac-[Lys(N3)][βAla]LTF[R8]EYWRQ[Cba][S5]SAA-NH2; staple 6-13)
EC50 ([1]; LDH: Cytotoxicity assay EC50): > 50 µM | solubility kinetic ([2]; pH 7, PBS): 2 µM (≈ 4.11 µg/mL) | EC50 (Ca Ski cell line): > 49.8 µM | EC50 [3]: 6.25 µM | cell entry EC50 (in vitro): 0.249 µM | EPSA (physchem [4]): 220 A^2 | logD [5]: 2.92

CC(=O)N[C@@H](CCCCN=[N+]=[N-])C(=O)NCCC(=O)N[C@@H](CC(C)C)C(=O)N[C@H](C(=O)N[C@@H](Cc1ccccc1)C(=O)N[C@]1(C)CCCCCCC=CCCC[C@@](C)(C(=O)N[C@@H](CO)C(=O)N[C@@H](C)C(=O)N[C@@H](C)C(N)=O)NC(=O)[C@H](CC2CCC2)NC(=O)[C@H](Cc2c[nH]c3ccccc23)NC(=O)[C@H](C)NC(=O)[C@H](Cc2c[nH]c3ccccc23)NC(=O)[C@H](Cc2ccc(O)cc2)NC(=O)[C@H](CCC(=O)O)NC1=O)[C@@H](C)O [MP-187] (Ac-[Lys(N3)][βAla]LTF[R8]EYWAW[Cba][S5]SAA-NH2; staple 6-13)
EC50 ([1]; LDH: Cytotoxicity assay EC50): > 50 µM | solubility kinetic ([2]; pH 7, PBS): 3.5 µM (≈ 7.1 µg/mL) | EC50 (Ca Ski cell line): > 49.8 µM | EC50 [3]: 7.27 µM | cell entry EC50 (in vitro): 0.247 µM | EPSA (physchem [4]): 242 A^2 | logD [5]: 3.14

CC(=O)N[C@@H](CCCCN=[N+]=[N-])C(=O)NCCC(=O)N[C@@H](Cc1c[nH]c2ccccc12)C(=O)N[C@H](C(=O)N[C@@H](Cc1ccccc1)C(=O)N[C@]1(C)CCCCCCC=CCCC[C@@](C)(C(=O)N[C@@H](CO)C(=O)N[C@@H](C)C(=O)N[C@@H](C)C(N)=O)NC(=O)[C@H](CC2CCC2)NC(=O)[C@H](CCC(N)=O)NC(=O)[C@H](C)NC(=O)[C@H](Cc2c[nH]c3ccccc23)NC(=O)[C@H](Cc2ccc(O)cc2)NC(=O)[C@H](CCC(=O)O)NC1=O)[C@@H](C)O [MP-183] (Ac-[Lys(N3)][βAla]WTF[R8]EYWAQ[Cba][S5]SAA-NH2; staple 6-13)
EC50 ([1]; LDH: Cytotoxicity assay EC50): > 50 µM | solubility kinetic ([2]; pH 7, PBS): 19 µM (≈ 38.8 µg/mL) | EC50 (Ca Ski cell line): 38.5 µM | EC50 [3]: 5.74 µM | cell entry EC50 (in vitro): 0.229 µM | EPSA (physchem [4]): 247 A^2 | logD [5]: 3.04

CC(=O)N[C@@H](CCCCN=[N+]=[N-])C(=O)NCCC(=O)N[C@H](C(=O)N[C@H](C(=O)N[C@@H](Cc1ccccc1)C(=O)N[C@]1(C)CCCCCCC=CCCC[C@@](C)(C(=O)N[C@@H](CO)C(=O)N[C@@H](C)C(=O)N[C@@H](C)C(N)=O)NC(=O)[C@H](CC2CCC2)NC(=O)[C@H](CCC(N)=O)NC(=O)[C@H](C(C)C)NC(=O)[C@H](Cc2c[nH]c3ccccc23)NC(=O)[C@H](Cc2ccc(O)cc2)NC(=O)[C@H](C(C)C)NC1=O)[C@@H](C)O)C(C)C [MP-490] (Ac-[Lys(N3)][βAla]VTF[R8]VYWVQ[Cba][S5]SAA-NH2; staple 6-13)
EC50 ([1]; LDH: Cytotoxicity assay: EC50): > 50.6 µM | solubility kinetic ([2]; pH 7, PBS): 3 µM (≈ 5.86 µg/mL) | EC50 (Ca Ski cell line): > 49.8 µM | EC50 [3]: 0.819 µM | cell entry EC50 (in vitro): 1.37 µM | EPSA (physchem [6]): 194 A^2 | logD [5]: 4

CC(=O)N[C@@H](CCCCN=[N+]=[N-])C(=O)NCCC(=O)N[C@@H](CC(C)C)C(=O)N[C@H](C(=O)N[C@@H](Cc1ccccc1)C(=O)N[C@]1(C)CCCCCCC=CCCC[C@@](C)(C(=O)N[C@@H](C)C(=O)N[C@@H](C)C(=O)N[C@@H](C)C(N)=O)NC(=O)[C@H](CC2CCC2)NC(=O)[C@H](CCC(N)=O)NC(=O)[C@H](C)NC(=O)[C@H](Cc2c[nH]c3ccccc23)NC(=O)[C@H](Cc2ccc(O)cc2)NC(=O)[C@H](C)NC1=O)[C@@H](C)O [MP-8965] (Ac-[Lys(N3)][βAla]LTF[R8]AYWAQ[Cba][S5]AAA-NH2; staple 6-13)
EC50 ([1]; LDH: Cytotoxicity assay EC50): > 50 µM | Solubility [2]: P.B. | Solubility ([2]; pH 7, PBS): Poorly Behaved | EC50 (Ca Ski cell line): > 49.8 µM | EC50 [3]: 0.855 µM | cell entry EC50 (in vitro): 0.112 µM | EPSA (physchem [4]): 205 A^2 | Partition Coeff LogD [5]: Poorly Behaved | Partition Coeff LogD ([5]; experimental): P.B.

CC(=O)N[C@@H](CCCCN=[N+]=[N-])C(=O)NCCC(=O)N[C@@H](CC(C)C)C(=O)N[C@H](C(=O)N[C@@H](Cc1ccccc1)C(=O)N[C@]1(C)CCCCCCC=CCCC[C@@](C)(C(=O)N[C@@H](Cc2c[nH]c3ccccc23)C(=O)N[C@@H](C)C(=O)N[C@@H](C)C(N)=O)NC(=O)[C@H](CC2CCC2)NC(=O)[C@H](CCC(N)=O)NC(=O)[C@H](C)NC(=O)[C@H](Cc2c[nH]c3ccccc23)NC(=O)[C@H](Cc2ccc(O)cc2)NC(=O)[C@H](CCC(=O)O)NC1=O)[C@@H](C)O [MP-188] (Ac-[Lys(N3)][βAla]LTF[R8]EYWAQ[Cba][S5]WAA-NH2; staple 6-13)
EC50 ([1]; LDH: Cytotoxicity assay EC50): > 50 µM | solubility kinetic ([2]; pH 7, PBS): 50 µM (≈ 103 µg/mL) | EC50 (Ca Ski cell line): 30.4 µM | EC50 [3]: 4.79 µM | cell entry EC50 (in vitro): 0.374 µM | EPSA (physchem [4]): 249 A^2 | logD [5]: 3.33

CC(=O)N[C@@H](CCCCN=[N+]=[N-])C(=O)NCCC(=O)N[C@@H](CCCNC(=N)N)C(=O)N[C@H](C(=O)N[C@@H](Cc1ccccc1)C(=O)N[C@]1(C)CCCCCCC=CCCC[C@@](C)(C(=O)N[C@@H](CO)C(=O)N[C@@H](C)C(=O)N[C@@H](C)C(N)=O)NC(=O)[C@H](CC2CCC2)NC(=O)[C@H](CCC(N)=O)NC(=O)[C@H](C)NC(=O)[C@H](Cc2c[nH]c3ccccc23)NC(=O)[C@H](Cc2ccc(O)cc2)NC(=O)[C@H](CCC(=O)O)NC1=O)[C@@H](C)O [MP-552] (Ac-[Lys(N3)][βAla]RTF[R8]EYWAQ[Cba][S5]SAA-NH2; staple 6-13)
EC50 ([1]; LDH: Cytotoxicity assay EC50): > 50 µM | solubility kinetic ([2]; pH 7, PBS): 2 µM (≈ 4.03 µg/mL) | EC50 (Ca Ski cell line): 39.9 µM | EC50 [3]: 4.32 µM | cell entry EC50 (in vitro): 0.0896 µM | EPSA (physchem [4]): 230 A^2 | logD [5]: 2.81
